According to patent US20250228858A1, “ANTI-CANCER COMBINATION THERAPY” (Boehringer Ingelheim International GmbH, priority 2023, published 2025):
Several values for one entry are separate records, joined by “and”; a condition that tells them apart may be missing. Identical values can stand only once.

Key:
Type in all cases: in vivo, NMRI-Foxn1^nu mice
[1] = tested on: HER2-overexpressing human ovarian cell line SK-OV-3; experiment: SK-OV-3 subcutaneous xenograft, zongertinib with T-DXd
Protocol: The study is performed in human ovarian cancer cell line SK-OV-3 grown as subcutaneous xenografts in NMRI-Foxn1^nu mice. Day 1 was the first day, day 20 the last day of treatment and final day of analysis.
SK-OV-3 is a HER2-overexpressing human ovarian cancer cell line that can be obtained from ATCC (lot HTB-77). Cells are cultured in T75, T175 and 5-Layer tissue culture flasks at 37° C. and 5% CO2. The medium used is IMDM (PAN-Biotech, #P04-200150) supplemented with 10% FCS (Cytiva HyClone Characterized FBS, SH30084.03n). Cultures are split twice weekly with a ratio of 1:2-1:3.
To establish subcutaneous tumors, SK-OV-3 cells are harvested by centrifugation, washed and resuspended in PBS+5% FCS at 5×10^7 cells/ml. 100 μl cell suspension containing 5×10^6 cells is injected subcutaneously into the right flank of mice (1 site per mouse).
Apart from this, statistical analysis was performed as described in Example 1 (see paragraph 1.1.7), with no evaluation of tumor growth after stop of treatment.

[2] = tested on: HER2 Exon20^YVMA-mutant human non-small cell lung cancer (NSCLC) cell line PC-9_YVMA-5; experiment: PC-9_YVMA-5 subcutaneous xenograft, zongertinib with T-DM1; settings: alone or combined; for effect on tumor growth (median tumor volumes over time): T-DM1 5 mg/kg once weekly (q7d), zongertinib 5 mg/kg/day; for TGI: day 19; for TGI / tumors regressed completely / Regressions >30%: zongertinib 5 mg/kg bid, T-DM1 5 mg/kg q7d; for tumors regressed completely: number of tumors, 8 per group; for Regressions >30%: tumors regressed/total (Table 6, FIG. 6 waterfall day 24)
Protocol: The study is performed in human non-small cell lung cancer (NSCLC) cell line PC-9_YVMA-5 (PC-9 YVMA in short) grown as subcutaneous xenografts in NMRI-Foxn1^nu mice. Day 1 was the first day, day 21 the last day of treatment and day 24 the final day of analysis.
PC-9 is a non-small cell lung cancer cell line that can be obtained from the European Collection of Authenticated Cell Cultures (ECACC #90071810) and expresses an EGFR DEL19 mutation. To generate the PC-9_YVMA-5 clone driven by HER2 YVMA, parental PC-9 cells are ectopically transduced to express the HER2 YVMA isoform and the EGFR alleles (mutant and wild type) are deleted using CRISPR technology. Cells are cultured in T175 tissue culture flasks at 37° C. and 5% CO2. The medium used is RPMI 1640 supplemented with 10% FCS (Thermo Scientific #SH 30071.03), 0.5 μg/ml Puromycin (Gibco #A1113803) and 0.6 mg/ml Geneticin (Gibco #10131035). Cultures are split twice weekly with a ratio of 1:5-1:6.
To establish subcutaneous tumors, PC-9_YVMA-5 cells are harvested by centrifugation, washed and resuspended in PBS+5% FCS at 5×10^7 cells/ml. 100 μl cell suspension containing 5×10^6 cells is injected subcutaneously into the right flank of the mice (1 site per mouse). Mice are randomly distributed between the treatment and the vehicle control group (12 days after cell injection) when tumors are well established and have reached volumes of 90 to 149 mm^3.
Mice in the control group are treated with vehicle, i.e.: • (i) 0.5% Natrosol, administered twice daily for the duration of the treatment intragastrally by gavage needle with a volume of 10 ml/kg body weight; and • (ii) saline (0.9%), administered once weekly intravenously into the tail vein with a volume of 5 ml/kg.
Tumor volumes and side effects are monitored as described in Example 1 (see paragraph 1.1.6), except that control animals are sacrificed when the median tumor volume of the group reaches a size of approximately 370 mm^3.
The statistical evaluation of the tumor volume and the body weight is conducted on day 19 (last day of the controls). Apart from this, statistical analysis was performed as described in Example 1 (see paragraph 1.1.7), with no evaluation of tumor growth after stop of treatment.

[3] = tested on: HER2-overexpressing human breast cancer cell line BT-474; experiment: BT-474 orthotopic xenograft, zongertinib with T-DM1; settings: for stable disease / Regressions >30% / TGI: day 42; for stable disease: number of tumors; for stable disease / mice that lost some weight and had to be euthanized: zongertinib 10 mg/kg qdx42, T-DM1 6 mg/kg q21dx2, monotherapies; for Regressions >30%: tumors regressed/total (partial response); for Regressions >30% / TGI: zongertinib 10 mg/kg qdx42 p.o., T-DM1 6 mg/kg q21dx2 i.v., alone or combined
Protocol: The study is performed in human breast cancer cell line BT-474 grown as orthotopic xenografts in NMRI-Foxn1^nu mice. Day 1 was the first day, day 42 the last day of treatment and final day of analysis.
BT-474 is obtained and cultured as described in Example 10 (see paragraph 10.1.2).
Tumors are established and randomized as described in Example 10 (see paragraph 10.14), except that mice are randomly distributed between the treatment and the vehicle control group (22 days after cell injection) when tumors are well established and have reached volumes of 84 to 310 mm^3.
Tumor volumes and side effects are monitored as described in Example 1 (see paragraph 1.1.6), except that control animals are sacrificed when the median tumor volume of the group reaches a size of approximately 710 mm^3.
The statistical evaluation of the tumor volume and the body weight is conducted on day 42 (last day of the study). Apart from this, statistical analysis was performed as described in Example 1 (see paragraph 1.1.7), with no evaluation of tumor growth after stop of treatment.

Row | Compound | TGI ([1]; day 15, zongertinib 10 mg/kg qdx20 p.o., T-DXd 7 mg/kg q21dx1 i.v., alone or combined) | Regressions >30% ([1]; day 20, tumors regressed/total (partial response), zongertinib 10 mg/kg qdx20 p.o., T-DXd 7 mg/kg q21dx1 i.v., alone or combined) | stable diseases ([1]; day 20, zongertinib 10 mg/kg qdx20 monotherapy) | effect on tumor growth (median tumor volumes over time) [2] | TGI [2] | tumors regressed completely [2] | Regressions >30% [2] | Regressions >30% ([2]; listed as zongertinib) | stable disease [3] | Regressions >30% [3] | Regressions >30% ([3]; listed as zongertinib) | TGI [3] | mice that lost some weight and had to be euthanized [3]
1 | C=CC(=O)NC1CCN(c2ncc3ncnc(Nc4ccc(Oc5ccc6c(c5)ncn6C)c(C)c4)c3n2)CC1 [Zongertinib, N-{1-[8-({3-methyl-4-[(1-methyl-1H-1,3-benzodiazol-5-yl)oxy]phenyl}amino)-[1,3]diazino [5,4-d]pyrimidin-2-yl]piperidin-4-yl}prop-2-enamide] | 91% | 0/8 | 2 out of 8 | abolished tumor growth | 110% | none | 4/8 | 4 | no stable disease | 0/7 | no partial responses | 86% | 1 out of 8
2 | trastuzumab emtansine [T-DM1, reference compound] | – | – | – | abolished tumor growth | 112% | none | 4 and 4/8 | – | 3 | 1 and 1/5 | – | 85% | 2 out of 8
